Laboratory results taken from ChEMBL document CHEMBL1201862, “PubChem BioAssay data set” (2004).
Active and inactive are the calls of the source.

Experiments:
Protein RecA = target: T1, Protein RecA (Mycobacterium tuberculosis, UniProt P9WHJ3); experiment: Fluorescence Cell-Free Homogeneous Dose Retest to Identify Inhibitors of RecA-Intein Splicing Activity. [Related pubchem assays (depositor defined):AID2097, AID2223, AID489010, AID492950]; assay type: functional
T1 sequence (P9WHJ3 whole entry): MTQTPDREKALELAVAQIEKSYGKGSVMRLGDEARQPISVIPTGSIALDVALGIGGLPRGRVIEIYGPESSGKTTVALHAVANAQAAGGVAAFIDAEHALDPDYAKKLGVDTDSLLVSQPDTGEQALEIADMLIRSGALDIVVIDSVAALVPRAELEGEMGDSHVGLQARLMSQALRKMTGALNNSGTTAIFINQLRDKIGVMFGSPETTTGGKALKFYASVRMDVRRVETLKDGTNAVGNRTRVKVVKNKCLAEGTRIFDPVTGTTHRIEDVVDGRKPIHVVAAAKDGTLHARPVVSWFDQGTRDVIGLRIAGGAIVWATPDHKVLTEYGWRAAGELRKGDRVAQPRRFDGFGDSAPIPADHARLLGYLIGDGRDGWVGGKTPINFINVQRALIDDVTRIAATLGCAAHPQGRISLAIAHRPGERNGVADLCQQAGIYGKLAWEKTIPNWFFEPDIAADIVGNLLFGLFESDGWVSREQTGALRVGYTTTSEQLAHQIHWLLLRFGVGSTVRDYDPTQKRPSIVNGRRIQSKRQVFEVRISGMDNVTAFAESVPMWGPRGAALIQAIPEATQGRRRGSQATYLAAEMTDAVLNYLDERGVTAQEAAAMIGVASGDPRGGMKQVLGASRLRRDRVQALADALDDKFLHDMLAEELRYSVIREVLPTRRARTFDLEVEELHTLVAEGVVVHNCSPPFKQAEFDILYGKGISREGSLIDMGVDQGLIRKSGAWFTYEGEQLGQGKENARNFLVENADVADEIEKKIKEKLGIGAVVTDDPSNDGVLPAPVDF

[1] = target: T2, Replicative DNA helicase DnaB (Mycobacterium tuberculosis, UniProt P9WMR3); experiment: DnaB intein splicing inhibitors, dose response, biochemical, cell-free fluorescence (AID 449749); assay type: functional
T2 sequence (P9WMR3 whole entry): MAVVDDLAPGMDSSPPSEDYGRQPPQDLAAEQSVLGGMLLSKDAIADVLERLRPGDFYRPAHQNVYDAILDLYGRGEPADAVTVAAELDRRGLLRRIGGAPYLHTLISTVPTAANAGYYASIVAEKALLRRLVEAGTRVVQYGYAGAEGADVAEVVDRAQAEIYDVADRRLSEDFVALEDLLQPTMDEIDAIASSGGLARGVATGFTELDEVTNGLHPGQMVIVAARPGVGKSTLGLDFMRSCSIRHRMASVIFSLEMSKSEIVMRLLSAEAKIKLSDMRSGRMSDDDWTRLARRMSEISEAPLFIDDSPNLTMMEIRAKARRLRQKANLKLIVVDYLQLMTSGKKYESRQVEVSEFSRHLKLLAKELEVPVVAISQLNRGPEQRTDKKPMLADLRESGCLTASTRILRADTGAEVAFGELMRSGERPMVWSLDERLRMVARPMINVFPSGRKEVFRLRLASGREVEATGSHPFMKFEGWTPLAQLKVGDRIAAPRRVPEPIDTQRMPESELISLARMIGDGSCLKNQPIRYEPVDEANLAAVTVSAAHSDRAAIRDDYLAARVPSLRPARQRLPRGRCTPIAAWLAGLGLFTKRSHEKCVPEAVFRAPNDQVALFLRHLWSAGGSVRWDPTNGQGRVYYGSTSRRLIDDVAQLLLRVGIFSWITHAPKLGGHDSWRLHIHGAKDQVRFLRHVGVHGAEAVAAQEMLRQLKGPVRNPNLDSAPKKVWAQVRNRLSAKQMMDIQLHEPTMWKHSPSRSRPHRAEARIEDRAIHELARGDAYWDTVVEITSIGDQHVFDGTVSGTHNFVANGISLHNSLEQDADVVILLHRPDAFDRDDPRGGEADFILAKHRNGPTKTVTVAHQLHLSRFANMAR

[2] = growth suppression of PTEN-null colon cells, dose response, cell-based, HCT116 PTEN knockout (AID 1047); assay type: functional;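 note: HCT116 colon tumor cells with PTEN knocked out; cells exposed to compound for 60 hours before readout; potency for loss of cell viability measured by luminescence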
[3] = growth suppression of beta-catenin-knockout colon cells, dose response, cell-based, HCT116, human colon tumor (AID 1045); assay type: functional;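 note: HCT116 colon tumor cells with beta catenin knocked out; cells exposed to compound for 60 hours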
[4] = Intein inhibitors as potential Tuberculosis drugs, a cytotoxicity screen. [Related pubchem assays (depositor defined):AID2221, AID2223, AID434968, AID435010, AID449749, AID449750, AID489010]; assay type: functional
[5] = target: T3, High affinity choline transporter 1 (Homo sapiens, UniProt Q9GZV3); experiment: CHT activators, dose response, cell-based, 10-point CRC, membrane potential dye (AID 602376); assay type: functional
T3 sequence (Q9GZV3 whole entry): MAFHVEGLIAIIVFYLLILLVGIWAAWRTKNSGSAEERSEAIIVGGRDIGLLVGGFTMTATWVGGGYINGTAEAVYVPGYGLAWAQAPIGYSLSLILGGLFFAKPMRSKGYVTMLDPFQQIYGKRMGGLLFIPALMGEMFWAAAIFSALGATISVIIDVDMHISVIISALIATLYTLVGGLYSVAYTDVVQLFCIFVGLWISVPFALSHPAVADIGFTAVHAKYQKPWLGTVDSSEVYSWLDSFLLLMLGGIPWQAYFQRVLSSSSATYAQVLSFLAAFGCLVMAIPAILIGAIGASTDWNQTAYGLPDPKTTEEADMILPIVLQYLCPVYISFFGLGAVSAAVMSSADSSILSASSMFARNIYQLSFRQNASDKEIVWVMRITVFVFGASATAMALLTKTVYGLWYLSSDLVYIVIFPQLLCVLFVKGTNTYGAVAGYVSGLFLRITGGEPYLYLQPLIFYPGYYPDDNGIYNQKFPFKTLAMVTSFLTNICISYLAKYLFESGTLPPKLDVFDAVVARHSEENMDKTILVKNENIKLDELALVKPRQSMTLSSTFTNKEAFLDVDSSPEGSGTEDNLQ

Paired box protein Pax-8 = Paired box protein Pax-8 (Homo sapiens, UniProt Q06710); experiment: inhibitors of PAX8-driven TPO luciferase reporter, dose response, RMG-I cells, cherry-pick (AID 687027); assay type: functional, cell-based;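 note: luciferase reporter driven by Pax8 target thyroperoxidase promoter measured by SteadyGlo luminescence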
[6] = A Cell Based Secondary Assay To Explore Cytotoxicity of Compounds that Sensitize Mycobacterium Tuberculosis to Beta-Lactam Antibiotics.; assay type: functional
[7] = non-specific cell cytotoxicity, dose response, cytotoxicity control for PAX8 inhibitor project, plate reader, dry powder samples (AID 743021); assay type: functional, cell-based
[8] = target: Protein disulfide-isomerase (Homo sapiens, UniProt P07237); experiment: PDI inhibitors, insulin aggregation turbidity, dose response, biochemical, absorbance, cherry-picked samples (AID 602350); assay type: functional
INS1 = experiment: beta cell apoptosis inhibitors, cytokine rescue, dose response, luminescence, retest (AID 449756); assay type: functional, cell-based; settings: Rattus norvegicus;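 note: cell death triggered by IL-1 beta plus TNF-alpha plus IFN-gamma mixture; protective hits raise ATP signal compared with cytokine alone wells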
[9] = nonselective inhibitors of cellular cAMP signaling, dose response, counter-screen for MC4R biased antagonist project, cell-based, TR-FRET cAMP detection (AID 602305); assay type: functional;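 note: U2OS cells stimulated with forskolin near its EC80 as the cAMP inducer; potency is for inhibition of forskolin-stimulated cAMP signaling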
[10] = Shn3 3'UTR reporter inhibitors, dose response, cell-based, Clone20 osteoblasts, firefly luciferase, cherry-picked (AID 624132); assay type: functional;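 note: firefly luciferase luminescence from reporter carrying the Shn3 3'UTR in osteoblasts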
[11] = inhibitors of intracellular T. cruzi replication, confirmation, NIH3T3 host cells, beta-gal luminescence (AID 2044); assay type: functional, cell-based;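 note: intracellular parasites grown in NIH/3T3 mouse fibroblasts as host cells; luminescent beta-galactosidase reporter signal from transgenic T. cruzi replicating inside host cells; inhibitors lower the luminescence signal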
[12] = target: T4, Type-1 angiotensin II receptor (Homo sapiens, UniProt P30556); experiment: AT1 receptor antagonists, dose response, selectivity assay for APJ receptor antagonist project, cell-based, uHTS hits (AID 463214); assay type: functional;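 note: antagonist potency against angiotensin II stimulated AT1 response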
T4 sequence (P30556 whole entry): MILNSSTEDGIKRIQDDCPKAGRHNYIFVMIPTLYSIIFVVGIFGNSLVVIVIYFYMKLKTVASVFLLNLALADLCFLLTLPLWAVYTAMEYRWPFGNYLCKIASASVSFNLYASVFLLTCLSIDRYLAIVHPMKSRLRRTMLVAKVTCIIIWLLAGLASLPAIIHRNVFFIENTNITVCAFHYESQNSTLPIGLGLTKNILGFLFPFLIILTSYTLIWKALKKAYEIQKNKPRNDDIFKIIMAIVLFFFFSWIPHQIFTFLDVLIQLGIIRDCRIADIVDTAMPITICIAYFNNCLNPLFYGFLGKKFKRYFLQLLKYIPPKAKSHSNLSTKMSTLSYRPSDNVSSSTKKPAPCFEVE

Large T antigen = Large T antigen (Simian virus 40, UniProt P03070); assay type: functional, Betapolyomavirus macacae;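 note: Confirmatory-stage PubChem screen for compounds that inhibit SV40 T antigen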
Beta-galactosidase = Beta-galactosidase (Escherichia coli, UniProt Q8VNN2); experiment: PubChem AID 485352; assay type: functional
[13] = HepG2 cell cytotoxicity, dose response, cytotoxicity control for Shn3 inhibitor project, CellTiter-Glo, cherry-picked (AID 624134); assay type: functional, cell-based
[14] = control 3'UTR Renilla luciferase suppression, dose response, counter-screen for Shn3 inhibitor project, cell-based, Clone20-Shn3RL, cherry-picked (AID 624133); assay type: functional
Melanocortin receptor 4 = Melanocortin receptor 4 (Homo sapiens, UniProt P32245); experiment: MC4R antagonist potency on cAMP, dose response, cell-based, TR-FRET, biased antagonists (AID 602298); assay type: functional;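 note: antagonist potency against agonist-stimulated cAMP production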
[15] = cytotoxicity toward NIH3T3 fibroblasts, dose response, counter-screen, cell-based, ATP luminescence, mouse fibroblasts (AID 2010); assay type: functional;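 note: cells exposed to compound for about 90 hours before reading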
Jurkat = experiment: antigen receptor-induced NF-kB inhibitors, dose response, Jurkat, luciferase reporter, luminescence, B- and T-cell (AID 489004); assay type: functional, cell-based; settings: Homo sapiens;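 note: NF-kB luciferase reporter Jurkat cells stimulated with PMA plus ionomycin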
[16] = cytotoxicity in HEK-293T NF-kB-Luc cells, dose response, cytotoxicity control for B/T-cell NF-kB inhibitor project, cell-based, uHTS hits (AID 489019); assay type: functional;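 note: IC50 reflects cytotoxicity as loss of cell viability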
Streptokinase A = target: T5, Streptokinase A (Streptococcus pyogenes serotype M1, UniProt P10520); experiment: S. pyogenes streptokinase expression inhibitors, potency, dose response, plasminogen activation absorbance, OD405 (AID 1914); assay type: functional, Streptococcus pyogenes M1 GAS;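 note: secreted streptokinase activity via plasminogen activation per viability signal from cell pellet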
T5 sequence (P10520 whole entry): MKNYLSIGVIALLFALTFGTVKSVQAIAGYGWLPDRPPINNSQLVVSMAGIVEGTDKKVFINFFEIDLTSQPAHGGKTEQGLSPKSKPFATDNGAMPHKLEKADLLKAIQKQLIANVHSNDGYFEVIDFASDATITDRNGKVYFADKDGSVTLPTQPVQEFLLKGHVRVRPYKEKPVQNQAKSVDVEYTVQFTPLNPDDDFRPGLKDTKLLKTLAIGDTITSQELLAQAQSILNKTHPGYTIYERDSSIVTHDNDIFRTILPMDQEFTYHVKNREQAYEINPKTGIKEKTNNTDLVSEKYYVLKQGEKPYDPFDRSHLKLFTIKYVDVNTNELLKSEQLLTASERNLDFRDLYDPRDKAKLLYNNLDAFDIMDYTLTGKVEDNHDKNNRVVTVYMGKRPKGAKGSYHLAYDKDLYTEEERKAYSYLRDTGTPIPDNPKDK

Streptococcus = experiment: Group A Streptococcus viability loss, dose response, counter-screen for streptokinase expression inhibitor project, luminescence, BacTiterGlo (AID 1915); assay type: functional, organism-based;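 note: potency for reduction of bacterial viability or growth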
[17] = tested on: Streptococcus sp. 'group A'; experiment: growth inhibition of control SK(-) GAS strain, dose response, counter-screen for streptokinase expression inhibitor project, luminescence, kanamycin, BacTiterGlo, confirmation (AID 1900); assay type: functional, organism-based
[18] = Luminescence Cell-Based Dose Retest to Confirm Inhibitors of Cancer Stem Cells. [Related pubchem assays (depositor defined):AID2717, AID2721]; assay type: functional; settings: Homo sapiens

Sequence of Protein disulfide-isomerase (P07237 whole entry): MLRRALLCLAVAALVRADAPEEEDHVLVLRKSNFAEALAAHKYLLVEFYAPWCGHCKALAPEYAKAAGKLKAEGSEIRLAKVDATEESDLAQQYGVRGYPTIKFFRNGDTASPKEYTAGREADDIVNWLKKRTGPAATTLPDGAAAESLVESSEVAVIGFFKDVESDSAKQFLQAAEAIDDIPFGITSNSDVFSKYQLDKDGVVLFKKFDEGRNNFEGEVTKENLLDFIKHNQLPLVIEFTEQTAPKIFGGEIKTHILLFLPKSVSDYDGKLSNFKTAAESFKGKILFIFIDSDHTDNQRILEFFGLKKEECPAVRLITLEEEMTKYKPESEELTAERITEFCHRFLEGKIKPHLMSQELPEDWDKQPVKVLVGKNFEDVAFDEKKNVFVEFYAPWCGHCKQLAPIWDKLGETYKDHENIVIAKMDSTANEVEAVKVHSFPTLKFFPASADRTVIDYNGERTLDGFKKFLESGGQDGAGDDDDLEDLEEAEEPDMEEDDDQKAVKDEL
Sequence of Melanocortin receptor 4 (P32245 whole entry): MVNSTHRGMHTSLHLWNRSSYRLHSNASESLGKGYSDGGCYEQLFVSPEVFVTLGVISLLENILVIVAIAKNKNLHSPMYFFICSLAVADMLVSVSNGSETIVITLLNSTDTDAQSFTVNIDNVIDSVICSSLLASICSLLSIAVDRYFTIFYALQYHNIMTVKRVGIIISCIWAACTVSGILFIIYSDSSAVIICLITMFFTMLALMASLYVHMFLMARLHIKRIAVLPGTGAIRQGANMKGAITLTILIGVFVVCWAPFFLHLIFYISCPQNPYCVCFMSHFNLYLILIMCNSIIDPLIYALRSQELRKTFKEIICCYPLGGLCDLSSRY
Sequence of Paired box protein Pax-8 (Q06710 whole entry): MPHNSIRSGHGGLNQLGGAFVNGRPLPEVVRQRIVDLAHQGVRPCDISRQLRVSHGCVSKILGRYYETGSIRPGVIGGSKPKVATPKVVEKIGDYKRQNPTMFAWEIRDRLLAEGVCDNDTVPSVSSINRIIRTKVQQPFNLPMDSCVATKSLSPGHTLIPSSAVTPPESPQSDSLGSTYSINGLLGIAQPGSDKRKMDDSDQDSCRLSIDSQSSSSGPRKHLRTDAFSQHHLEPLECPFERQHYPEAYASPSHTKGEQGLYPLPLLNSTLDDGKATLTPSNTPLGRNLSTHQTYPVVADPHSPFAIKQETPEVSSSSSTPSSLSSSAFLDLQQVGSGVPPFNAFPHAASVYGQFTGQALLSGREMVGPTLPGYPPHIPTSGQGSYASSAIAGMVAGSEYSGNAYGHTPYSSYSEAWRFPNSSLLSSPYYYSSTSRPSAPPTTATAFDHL
Sequence of Large T antigen (P03070 whole entry): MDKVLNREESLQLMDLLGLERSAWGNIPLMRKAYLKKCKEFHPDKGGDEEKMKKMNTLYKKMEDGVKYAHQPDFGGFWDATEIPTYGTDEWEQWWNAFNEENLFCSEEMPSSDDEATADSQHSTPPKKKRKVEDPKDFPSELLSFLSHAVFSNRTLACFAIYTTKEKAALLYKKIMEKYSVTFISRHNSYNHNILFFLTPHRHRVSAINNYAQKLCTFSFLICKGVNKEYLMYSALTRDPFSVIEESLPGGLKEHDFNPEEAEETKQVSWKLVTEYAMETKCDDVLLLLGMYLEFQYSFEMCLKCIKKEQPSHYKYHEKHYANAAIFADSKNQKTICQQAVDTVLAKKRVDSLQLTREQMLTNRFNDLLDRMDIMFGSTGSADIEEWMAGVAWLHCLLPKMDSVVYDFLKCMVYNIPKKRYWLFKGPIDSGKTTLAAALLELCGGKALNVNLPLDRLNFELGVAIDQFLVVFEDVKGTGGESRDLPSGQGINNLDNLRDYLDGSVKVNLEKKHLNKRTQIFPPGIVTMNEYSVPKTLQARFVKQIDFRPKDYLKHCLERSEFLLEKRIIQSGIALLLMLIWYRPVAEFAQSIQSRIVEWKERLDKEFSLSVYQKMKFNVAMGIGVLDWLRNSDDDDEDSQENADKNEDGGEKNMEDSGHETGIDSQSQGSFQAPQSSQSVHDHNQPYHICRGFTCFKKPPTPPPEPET
Sequence of Beta-galactosidase (Q8VNN2 whole entry): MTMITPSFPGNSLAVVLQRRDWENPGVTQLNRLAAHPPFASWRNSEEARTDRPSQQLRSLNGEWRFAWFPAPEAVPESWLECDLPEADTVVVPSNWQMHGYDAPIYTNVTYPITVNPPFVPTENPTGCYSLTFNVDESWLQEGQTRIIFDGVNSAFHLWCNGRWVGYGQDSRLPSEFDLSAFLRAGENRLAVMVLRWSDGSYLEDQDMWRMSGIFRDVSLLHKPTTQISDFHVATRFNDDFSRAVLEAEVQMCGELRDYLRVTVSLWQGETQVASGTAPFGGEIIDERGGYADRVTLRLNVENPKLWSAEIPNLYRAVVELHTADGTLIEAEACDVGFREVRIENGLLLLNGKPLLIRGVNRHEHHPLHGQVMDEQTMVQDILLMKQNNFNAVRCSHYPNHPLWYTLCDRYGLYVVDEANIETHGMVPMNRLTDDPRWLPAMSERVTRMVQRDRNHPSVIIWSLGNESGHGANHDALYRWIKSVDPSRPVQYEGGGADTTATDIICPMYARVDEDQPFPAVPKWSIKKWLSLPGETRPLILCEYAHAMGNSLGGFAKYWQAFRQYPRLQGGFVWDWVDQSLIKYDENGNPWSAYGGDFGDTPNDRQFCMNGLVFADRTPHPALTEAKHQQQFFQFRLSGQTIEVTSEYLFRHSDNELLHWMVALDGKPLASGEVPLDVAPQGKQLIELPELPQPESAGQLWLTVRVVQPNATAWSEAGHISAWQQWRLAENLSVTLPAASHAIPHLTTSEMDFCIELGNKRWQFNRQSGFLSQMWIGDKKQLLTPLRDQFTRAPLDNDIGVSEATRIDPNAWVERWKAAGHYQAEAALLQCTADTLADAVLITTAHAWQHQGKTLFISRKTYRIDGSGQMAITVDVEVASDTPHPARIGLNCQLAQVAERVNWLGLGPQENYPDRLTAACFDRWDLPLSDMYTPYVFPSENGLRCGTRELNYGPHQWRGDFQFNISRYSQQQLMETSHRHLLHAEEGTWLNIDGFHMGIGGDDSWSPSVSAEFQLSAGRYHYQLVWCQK

Cc1nn(-c2ccccc2)c(Cl)c1CN(C(=O)CCl)c1cccc2ccccc12
EC50 (Protein RecA): 0.571 µM (active)
AC50 [1]: 2.28 µM (active)
EC50 [2]: 3.44 µM (active)
EC50 [3]: 2.25 µM (active)
CC50 [4]: 1.81 µM (active)
EC50 [5]: 16.7 µM (active)
AC50 (Paired box protein Pax-8): 9.95 µM (active)
CC50 [6]: 0.591 µM (active)
AC50 [7]: 11.3 µM (active)

COc1ccc(C2c3ccc(O)cc3Oc3ncn(CCN4CCOCC4)c(=N)c32)cc1OC (stereo not given)
AC50 [8]: 15.5 µM (active)

CCS(=O)(=O)c1ncc(Cl)c(C(=O)Nc2ccc(S(=O)(=O)N3CCCC(C)C3)cc2)n1 (stereo not given)
AC50 (INS1): 4.76 µM (active)
IC50 [9]: > 64.6 µM (inactive)
AC50 [10]: < 0.26 µM (active)
EC50 [11]: 2.25 µM (active)
IC50 [12]: 2.18 µM (active)
IC50 (Large T antigen): 62.8 µM (active)
EC50 (Beta-galactosidase): > 40 µM (inactive)
AC50 (Paired box protein Pax-8): 5.34 µM (active)
AC50 [13]: 9.33 µM (active)
AC50 [14]: 3.95 µM (active)
IC50 (Melanocortin receptor 4): > 0.797 µM (active)
EC50 [15]: 3.48 µM (active)

COc1ccc(-c2cn3c([n+]2-c2ccc(C)cc2)CCCCC3)cc1
IC50 (Jurkat): > 80 µM (inactive)
EC50 [5]: 9.77 µM (active)
AC50 (INS1): 0.348 µM (active)
EC50 [11]: 0.171 µM (active)
IC50 [16]: > 80 µM (inactive)
EC50 [15]: > 60 µM (not active)

COC(=O)c1cc(S(=O)(=O)n2nc(C)c(Br)c2C)c(Cl)cc1Cl
IC50 [9]: > 64.6 µM (inactive)
EC50 (Streptokinase A): > 150 µM (not active)
EC50 (Streptococcus): 10.4 µM (active)
IC50 (Melanocortin receptor 4): > 64.6 µM (inactive)
EC50 [17]: 1.8 µM (active)

Oc1ccc(/C=C/c2nc(-c3ccccc3O)n(-c3ccccc3)n2)cc1
AC50 [18]: 6.8 µM (active)
AC50 [8]: 18.8 µM (active)
